Data taken from PMC11364104, “Discovery of SARS-CoV-2 papain-like protease (PL^pro) inhibitors with efficacy in a murine infection model” (Science Advances, 2024).
Like-named read-outs stand apart in the source and are kept apart here.

Assays:
Human Cathepsin K = molecular target: T1, Human Cathepsin K (Homo sapiens, UniProt P43235); test: biochemical
T1 construct: assay run at Reaction Biology Corporation

[1] = molecular target: T2, Androgen Receptor (Binding) (Homo sapiens, UniProt P10275); test: CEREP NHR-binding
T2 construct: purchased Eurofins Cerep
T2 sequence (P10275 whole entry): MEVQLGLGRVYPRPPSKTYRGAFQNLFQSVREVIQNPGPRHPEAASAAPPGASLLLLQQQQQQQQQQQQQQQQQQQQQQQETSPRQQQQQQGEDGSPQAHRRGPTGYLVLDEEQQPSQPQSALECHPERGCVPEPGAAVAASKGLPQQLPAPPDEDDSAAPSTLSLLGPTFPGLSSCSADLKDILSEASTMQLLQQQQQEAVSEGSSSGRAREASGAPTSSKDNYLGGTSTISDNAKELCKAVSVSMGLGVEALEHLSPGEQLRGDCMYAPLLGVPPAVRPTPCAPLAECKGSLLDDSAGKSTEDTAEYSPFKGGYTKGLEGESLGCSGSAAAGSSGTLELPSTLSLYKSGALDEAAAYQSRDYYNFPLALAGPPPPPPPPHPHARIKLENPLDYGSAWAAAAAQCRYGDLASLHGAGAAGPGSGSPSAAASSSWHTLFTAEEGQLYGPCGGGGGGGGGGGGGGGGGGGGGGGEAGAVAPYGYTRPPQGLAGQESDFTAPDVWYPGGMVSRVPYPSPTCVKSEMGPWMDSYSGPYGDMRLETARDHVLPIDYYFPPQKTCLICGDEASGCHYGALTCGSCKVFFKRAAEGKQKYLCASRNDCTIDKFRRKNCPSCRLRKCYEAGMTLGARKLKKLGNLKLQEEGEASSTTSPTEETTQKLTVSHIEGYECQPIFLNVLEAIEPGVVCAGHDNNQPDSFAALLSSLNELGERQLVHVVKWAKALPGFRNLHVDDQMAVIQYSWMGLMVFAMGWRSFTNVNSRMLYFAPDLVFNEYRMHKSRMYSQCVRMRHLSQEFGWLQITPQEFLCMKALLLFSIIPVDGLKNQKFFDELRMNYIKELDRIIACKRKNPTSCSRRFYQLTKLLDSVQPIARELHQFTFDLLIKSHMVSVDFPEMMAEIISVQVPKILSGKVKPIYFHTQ

GABAa1 Receptor = molecular target: T3, GABAa1 Receptor (Homo sapiens, UniProt P14867); test: CEREP ion channel-binding
T3 construct: purchased Eurofins Cerep

EGFR Kinase = molecular target: T4, EGFR Kinase (Homo sapiens, UniProt P00533); test: CEREP kinase inhibition; format: biochemical
T4 construct: purchased Eurofins Cerep
T4 sequence (P00533 25-1210): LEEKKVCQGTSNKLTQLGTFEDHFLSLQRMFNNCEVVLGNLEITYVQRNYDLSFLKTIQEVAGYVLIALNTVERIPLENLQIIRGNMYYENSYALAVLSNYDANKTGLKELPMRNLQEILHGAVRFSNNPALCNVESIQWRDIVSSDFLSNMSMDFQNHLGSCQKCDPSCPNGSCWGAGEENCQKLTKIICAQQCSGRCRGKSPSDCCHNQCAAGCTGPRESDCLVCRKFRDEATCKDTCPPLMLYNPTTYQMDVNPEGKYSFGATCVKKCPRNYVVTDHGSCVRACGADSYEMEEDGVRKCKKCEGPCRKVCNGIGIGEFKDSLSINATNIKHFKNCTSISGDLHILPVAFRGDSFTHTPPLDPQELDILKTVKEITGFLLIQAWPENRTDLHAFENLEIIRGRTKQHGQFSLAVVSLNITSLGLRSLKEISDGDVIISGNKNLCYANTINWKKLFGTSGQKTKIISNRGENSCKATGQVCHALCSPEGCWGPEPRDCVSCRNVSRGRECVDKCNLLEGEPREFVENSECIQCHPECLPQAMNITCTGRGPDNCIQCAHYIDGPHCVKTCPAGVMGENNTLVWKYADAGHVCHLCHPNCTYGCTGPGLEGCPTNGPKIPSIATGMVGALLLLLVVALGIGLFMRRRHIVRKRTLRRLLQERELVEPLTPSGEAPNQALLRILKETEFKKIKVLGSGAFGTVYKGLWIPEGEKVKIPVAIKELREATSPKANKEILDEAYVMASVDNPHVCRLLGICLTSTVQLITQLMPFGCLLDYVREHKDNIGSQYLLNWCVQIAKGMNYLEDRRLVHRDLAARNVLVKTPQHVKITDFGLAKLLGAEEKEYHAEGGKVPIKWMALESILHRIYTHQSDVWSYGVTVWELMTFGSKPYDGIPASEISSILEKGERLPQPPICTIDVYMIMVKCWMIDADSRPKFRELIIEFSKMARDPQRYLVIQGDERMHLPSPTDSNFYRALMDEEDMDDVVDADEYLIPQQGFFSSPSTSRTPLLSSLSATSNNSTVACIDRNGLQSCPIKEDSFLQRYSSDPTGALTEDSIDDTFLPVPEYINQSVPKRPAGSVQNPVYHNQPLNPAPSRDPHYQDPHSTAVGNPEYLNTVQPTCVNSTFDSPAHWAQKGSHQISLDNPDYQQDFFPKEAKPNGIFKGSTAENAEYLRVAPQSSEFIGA

L-Type Ca (verapamil) = test: CEREP ion channel-binding; conditions: 30 µM
[2] = Metabolic stability in cryopreserved human hepatocytes
[3] = molecular target: T5, human Nav1.5 sodium channel (Homo sapiens, UniProt Q14524); test: hNav1.5 automated patch clamp; format: cell-based; conditions: read-out: NaV IC50
T5 construct: assay run at Metrion Biosciences Ltd; host or cells: CHO
T5 sequence (Q14524 whole entry): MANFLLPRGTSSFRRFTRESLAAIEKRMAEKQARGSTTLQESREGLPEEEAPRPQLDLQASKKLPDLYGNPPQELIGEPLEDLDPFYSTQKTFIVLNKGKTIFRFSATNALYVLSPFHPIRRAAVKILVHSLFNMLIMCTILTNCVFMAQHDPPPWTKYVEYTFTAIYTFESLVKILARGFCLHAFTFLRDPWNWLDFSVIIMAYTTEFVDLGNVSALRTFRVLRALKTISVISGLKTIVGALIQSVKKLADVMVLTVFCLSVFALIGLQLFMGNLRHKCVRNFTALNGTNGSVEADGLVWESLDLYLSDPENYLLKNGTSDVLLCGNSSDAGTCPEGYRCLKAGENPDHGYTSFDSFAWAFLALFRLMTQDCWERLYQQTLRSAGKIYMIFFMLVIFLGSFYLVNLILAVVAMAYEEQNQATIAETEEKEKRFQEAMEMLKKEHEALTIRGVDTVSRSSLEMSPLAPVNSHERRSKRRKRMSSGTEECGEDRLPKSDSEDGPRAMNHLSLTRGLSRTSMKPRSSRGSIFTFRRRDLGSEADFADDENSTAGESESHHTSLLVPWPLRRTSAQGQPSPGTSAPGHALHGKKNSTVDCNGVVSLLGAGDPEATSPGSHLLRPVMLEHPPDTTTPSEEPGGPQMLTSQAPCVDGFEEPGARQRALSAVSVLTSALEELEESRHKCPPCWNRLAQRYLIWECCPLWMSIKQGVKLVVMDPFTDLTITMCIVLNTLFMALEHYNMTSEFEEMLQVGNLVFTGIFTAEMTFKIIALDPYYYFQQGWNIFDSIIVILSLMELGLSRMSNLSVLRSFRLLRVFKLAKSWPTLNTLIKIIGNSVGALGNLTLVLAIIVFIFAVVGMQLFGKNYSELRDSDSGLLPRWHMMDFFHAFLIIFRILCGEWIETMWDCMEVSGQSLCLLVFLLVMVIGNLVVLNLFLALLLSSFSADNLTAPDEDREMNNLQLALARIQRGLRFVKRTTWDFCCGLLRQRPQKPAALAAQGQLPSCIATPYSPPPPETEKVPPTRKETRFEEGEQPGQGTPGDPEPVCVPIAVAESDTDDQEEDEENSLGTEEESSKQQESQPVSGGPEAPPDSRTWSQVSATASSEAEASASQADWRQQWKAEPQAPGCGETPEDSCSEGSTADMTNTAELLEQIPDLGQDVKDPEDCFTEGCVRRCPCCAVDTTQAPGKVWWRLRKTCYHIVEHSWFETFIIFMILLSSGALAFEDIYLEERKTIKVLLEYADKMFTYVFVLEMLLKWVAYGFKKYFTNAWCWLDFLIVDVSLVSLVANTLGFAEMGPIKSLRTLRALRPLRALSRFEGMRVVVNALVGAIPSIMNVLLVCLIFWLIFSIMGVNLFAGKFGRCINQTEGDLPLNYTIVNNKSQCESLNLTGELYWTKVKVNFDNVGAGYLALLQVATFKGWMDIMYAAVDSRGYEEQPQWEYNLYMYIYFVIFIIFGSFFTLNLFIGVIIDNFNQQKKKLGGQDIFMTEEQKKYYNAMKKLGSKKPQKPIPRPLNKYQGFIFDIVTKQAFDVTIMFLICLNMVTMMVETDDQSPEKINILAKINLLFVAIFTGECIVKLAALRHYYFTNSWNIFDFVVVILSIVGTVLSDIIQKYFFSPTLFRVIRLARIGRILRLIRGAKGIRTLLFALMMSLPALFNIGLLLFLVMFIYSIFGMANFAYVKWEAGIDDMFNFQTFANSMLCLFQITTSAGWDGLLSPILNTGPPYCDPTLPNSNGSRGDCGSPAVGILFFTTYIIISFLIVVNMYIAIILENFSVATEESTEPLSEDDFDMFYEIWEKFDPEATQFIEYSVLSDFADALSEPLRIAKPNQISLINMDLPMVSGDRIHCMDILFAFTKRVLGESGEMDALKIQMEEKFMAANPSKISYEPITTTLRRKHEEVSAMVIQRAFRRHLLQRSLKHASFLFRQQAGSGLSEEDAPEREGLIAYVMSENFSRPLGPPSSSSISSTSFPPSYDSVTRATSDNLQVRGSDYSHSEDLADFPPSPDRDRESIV
Method: Hz, and hCav1.2 current was measured as the peak current at 0 mV. All studies were […]
Three vehicle periods each lasting 5 minutes were applied to establish a stable baseline.
This was followed by the addition of increasing concentrations of test compound, with each exposure lasting 5 minutes. Patch clamp data were analyzed using Analyzer Software 6.4.72. Current amplitudes were determined by averaging the last 4 currents under each test condition. The percentage inhibition of each compound was determined by taking the ratio of current amplitude measured in the presence of various concentrations of the test compound (ICompound) versus the vehicle control current (IVehicle): % Inhibition = [1-(I Compound/IVehicle)] * 100%. A dose-response curve was generated and fit to the Hill equation by the Sophion Analyzer software to determine an IC50 value for each compound. The minimum and the […]
CHO cells stably expressing the human Nav1.5 sodium channel (University of Pennsylvania, Philadelphia, PA, hNav1.5 clone #6) were cultured in Hams F12 + Glutamax media supplemented with 10% FBS and Geneticin (0.5 mg/mL) at 37°C and 5% CO2 and subcultured every 2-3 days in T175 flasks. […]
Ionic currents were evaluated in the whole-cell configuration using the Qube384 platform using QChip 384x plates. […]

hCoV-OC43_PLpro2 = hCoV-OC43_PLpro2 (Human coronavirus OC43, UniProt P0C6X6); test: biochemical; design: species or system OC43-CoV
Sequence of hCoV-OC43_PLpro2 (P0C6X6 1631-1892): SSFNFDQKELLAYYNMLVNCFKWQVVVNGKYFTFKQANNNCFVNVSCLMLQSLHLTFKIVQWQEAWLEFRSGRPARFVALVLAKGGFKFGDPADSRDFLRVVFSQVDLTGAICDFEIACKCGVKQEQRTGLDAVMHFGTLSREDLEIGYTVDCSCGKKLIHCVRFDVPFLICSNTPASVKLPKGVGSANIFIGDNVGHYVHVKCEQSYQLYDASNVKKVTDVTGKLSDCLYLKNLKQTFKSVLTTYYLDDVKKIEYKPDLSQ

[4] = Media binding for in vitro cell systems; format: in vitro ADME
Aurora A Kinase = molecular target: T6, Aurora A Kinase (Homo sapiens, UniProt O14965); test: CEREP kinase inhibition; format: biochemical
T6 construct: purchased Eurofins Cerep
T6 sequence (O14965 whole entry): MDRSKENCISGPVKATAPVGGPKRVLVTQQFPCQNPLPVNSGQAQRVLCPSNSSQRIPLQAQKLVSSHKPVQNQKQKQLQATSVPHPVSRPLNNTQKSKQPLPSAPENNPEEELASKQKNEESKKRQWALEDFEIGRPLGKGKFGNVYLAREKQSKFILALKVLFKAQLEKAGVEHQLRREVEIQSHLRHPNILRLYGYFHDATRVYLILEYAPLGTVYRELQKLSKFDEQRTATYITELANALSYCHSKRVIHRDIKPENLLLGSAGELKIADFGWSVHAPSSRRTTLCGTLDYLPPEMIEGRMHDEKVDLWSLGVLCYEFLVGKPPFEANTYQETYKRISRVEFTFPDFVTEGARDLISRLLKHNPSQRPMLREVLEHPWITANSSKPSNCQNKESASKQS

CYP3A4 = CYP3A4 (Homo sapiens, UniProt P08684); test: biochemical
Vero E6 cells = conditions: read-out: Mean CC50; n=3

T1 sequence (P43235 115-329): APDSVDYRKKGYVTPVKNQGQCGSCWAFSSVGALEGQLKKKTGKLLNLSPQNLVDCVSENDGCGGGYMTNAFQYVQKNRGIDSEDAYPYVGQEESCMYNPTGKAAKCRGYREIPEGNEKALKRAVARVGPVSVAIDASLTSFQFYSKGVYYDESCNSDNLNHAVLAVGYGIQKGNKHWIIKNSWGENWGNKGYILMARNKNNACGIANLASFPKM

For Cc1ccc(N2CCN(C)CC2)cc1C(=O)NC1(c2cc(-c3cnn(C)c3)nc3ccccc23)CC1 [Compound 4], the IC50 (Human Cathepsin K) was over 100 µM, the inhibition at 30 µM [1] was -10% and the inhibition at 30 µM (GABAa1 Receptor) was 10%. For the same molecule, the inhibition at 30 µM (EGFR Kinase) was 9%, the “% inhibition” value (L-Type Ca (verapamil)) was -19% and the hepatocyte CLint [2] was 8.84 µL/min/1e6 cells. For the same molecule, the IC50 [3] was over 100 µM, the Ki (hCoV-OC43_PLpro2) was over 10 µM and the “activity on OC43 PL^pro” value (hCoV-OC43_PLpro2) was “nearly inactive”. For the same molecule, the fraction unbound ([4]; bovine, cell culture medium (2% HI-FBS in DMEM), media: 2% HI-FBS in DMEM, n = 4, read-out: Fu (CV)) was 0.749, the fraction unbound ([4]; dNHBE medium, read-out: fraction unbound in the dNHBE medium) was 0.916 and the inhibition at 30 µM (Aurora A Kinase) was -1%. It also gave an IC50 (CYP3A4) of over 30 µM and a CC50 (Vero E6 cells) of 78.7 µM.
